Measurements as given in patent US20220241223A1, “USE OF DISULFIRAM OR ITS DERIVATIVES FOR THE TREATMENT OF MITOCHONDRIAL DISEASES OR DYSFUNCTION” (Universite D'angers, priority 2019, published 2022).

System: SHY1 Mutation G137R (shy1) yeast strain
Assay: Halo test of growth on respiratory medium
Type: cell-based, Saccharomyces cerevisiae
Settings: FIG. 1B; shy1 mutant strain; 10 and 30 nmoles on filter
Experimental: Each of the various Saccharomyces cerevisiae yeast strains used in examples 1 to 3 contain different specific mutations modeling human mutations resulting in mitochondrial diseases. At different extents, all these yeast strains present growth defect when grown on respiratory medium such as ethanol or glycerol at 28° C. or 36° C. (depending on the strain). […]
More precisely, 200 μL of the various yeast mutant strain grown in liquid YPD rich fermentable medium (1% Yeast Extract, 0.5% Bacto Peptone, 2% Glucose) at 0.4 OD600 were spread on agar-based solid respiratory medium: either YPG (1% Yeast Extract, 0.5% Bacto Peptone, 2% glycerol) or YPE (1% Yeast Extract, 0.5% Bacto Peptone, 2% ethanol). Small sterile filters were then placed on the agar surface and increasing concentrations of DSF were added to the filters at the indicated quantities. […]

`CCN(CC)C(=S)S.[Na+]` [DEDTC, Sodium diethyldithiocarbamate] was tested, and the “effect on growth defect on non-fermentable (respiratory) medium” value was “similarly suppresses the growth defect”.
